# Assay results reported in PubChem BioAssay AID1963981 (Molecular Pharmacology Branch, DTP, NCI, 2024).
# System: 354836-022-R-J1-PDC multicell spheroid viability
# Assay: Anticancer human tumor 354836-022-R-J1-PDC patient-derived head and neck squamous cell carcinoma cell line growth inhibition [PI3K]
# Settings: for viability, T/C: stronger effect = lower value
# Source text: Combinatorial screen of targeted agents with the PI3K inhibitors inavolisib, alpelisib, duvelisib, and copanlisib in multi-cell type tumor spheroids
# A high-throughput screen of multi-cell type tumor spheroids was designed to identify active combinations of targeted small molecules and PI3K pathway inhibitors. Complex spheroids include a stromal component modeled by human endothelial cells (HUVEC) and fibroblasts modeled by human mesenchymal stem cells (MSCs). The concentration ranges selected for each drug and investigational agent were based upon clinically achievable concentrations if the clinical Cmax of the agent was known.
# Compounds. The drugs and investigational agents: inavolisib (NSC800729), alpelisib (NSC765974), duvelisib (NSC772469), copanlisib (NSC816437), ipatasertib (NSC767898), afuresertib (NSC778305), talazoparib (NSC767125), sapanisertib (NSC764658), selumetinib (NSC741078), tovorafenib (DAY101, NSC766906), vemurafenib (NSC761431), ravoxertinib (NSC781343), sotorasib (NSC818433), MRTX1133 (NSC 836407), abemaciclib (NSC 768073), palbociclib (NSC758247), venetoclax (NSC 766270), SY5609 (NSC837396), enzalutamide (NSC755605), and darolutamide (NSC825331), were obtained from the National Cancer Institute (NCI) Developmental Therapeutics Program Chemical Repository. The FDA-approved anticancer drug set is available from the NCI Developmental Therapeutics Program. […] The stock solutions were prepared in dimethyl sulfoxide (DMSO, Sigma-Aldrich, St. Louis, MO, cat. D2650) at 800-fold the tested concentration and stored at -70 degrees C prior to their use. All drugs and investigational agents were tested over a range starting from a high concentration at or near the clinical Cmax and decreasing in half-log increments. If the clinical Cmax for an agent had not been determined, the highest concentration tested was 10 microM.
# Cell Culture. All cells were maintained in an incubator at 37 degrees C and 5% CO2 with 95% humidity. The PDC lines were cultured according to standard operating procedures established by the NCI PDMR (https://pdmr.cancer.gov/sops/default.htm). All PDCs were thawed and cultured in Matrigel-coated flasks prepared with a working solution of 1X Ham's F-12 nutrient mix, without supplementation (Invitrogen, Waltham, MA, cat. 11765054), 100 U/mL penicillin-streptomycin (Invitrogen, cat. 15140122), and 2.5% Matrigel (Corning Inc., Corning, NY, cat. 354248) for the first three passages. The 354836-022-R-J1-PDC, 475296-252-R-J1-PDC, and 997726-040-R-J2-PDC lines were cultured in 6A media, which includes advanced DMEM/F-12 (Thermo Fisher Scientific, cat. 12634028), 10 mM HEPES (Thermo Fisher Scientific, cat. 15630080), 1X GlutaMAX supplement (Thermo Fisher Scientific, cat. 35050061), 0.1 mg/mL primocin (InvivoGen, San Diego, CA, cat. ant-pm-2), 10% defined fetal bovine serum, heat inactivated (HyClone Laboratories Inc., Logan, UT, cat. SH30070.03HI), 50% L-WRN conditioned media (ATCC, cat. CRL-3276), 1.25 mM N-Acetyl-L-cysteine (Sigma-Aldrich, cat. A9165), 10 mM nicotinamide (Sigma-Aldrich, cat. N0636), 1X B-27 supplement (Thermo Fisher Scientific, cat. 17504044), 1X N-2 supplement (Thermo Fisher Scientific, cat. 17502048), and 10 microM Y-27632 dihydrochloride (Tocris Bioscience, Bristol, United Kingdom, cat. 1254). The 624824-186-R-J2-PDC line was cultured in 6C/Colon 1B media, which includes all 6A media components plus 50 ng/mL human EGF recombinant protein (Thermo Fisher Scientific, cat. PHG0311). […]
# [1] = curve of first compound, second compound 0.0316 µM
# [2] = curve of first compound, second compound 0.1 µM
# [3] = curve of first compound, second compound 0.316 µM
# [4] = curve of first compound, second compound 1 µM
# [5] = curve of first compound, second compound 3.16 µM
# [6] = curve of first compound, second compound 10 µM
# [7] = second compound 0.0316 µM, first compound 0.0316 µM
# [8] = second compound 0.0316 µM, first compound 0.1 µM
# [9] = second compound 0.1 µM, first compound 0.0316 µM
# [10] = second compound 0.1 µM, first compound 0.1 µM
# [11] = second compound 0.316 µM, first compound 0.0316 µM
# [12] = second compound 0.316 µM, first compound 0.1 µM
# [13] = second compound 1 µM, first compound 0.0316 µM
# [14] = second compound 1 µM, first compound 0.1 µM
# [15] = second compound 3.16 µM, first compound 0.0316 µM
# [16] = second compound 3.16 µM, first compound 0.1 µM
# [17] = second compound 10 µM, first compound 0.0316 µM
# [18] = second compound 10 µM, first compound 0.1 µM
# 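Also: spheroids exposed to agents for seven days before the viability read.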
compound,measurement,setting,value
C#Cc1c(F)ccc2cc(O)cc(-c3ncc4c(N5CC6CCC(C5)N6)nc(OCC56CCCN5CC(F)C6)nc4c3F)c12 (stereo unspecified) + Cc1nc(NC(=O)N2CCCC2C(N)=O)sc1-c1ccnc(C(C)(C)C(F)(F)F)c1,IC50,[1],> 10000 nM
same,IC50,[2],> 10000 nM
same,IC50,[3],> 10000 nM
same,IC50,[4],> 10000 nM
same,IC50,[5],> 10000 nM
same,IC50,[6],< 31.6 nM
same,"viability, T/C",[7],95%
same,"viability, T/C",[8],99.3%
same,"viability, T/C","second compound 0.0316 µM, first compound 0.316 µM",103%
same,"viability, T/C","second compound 0.0316 µM, first compound 1 µM",95.4%
same,"viability, T/C","second compound 0.0316 µM, first compound 3.16 µM",106%
same,"viability, T/C","second compound 0.0316 µM, first compound 10 µM",93.9%
same,"viability, T/C",[9],98.5%
same,"viability, T/C",[10],101%
same,"viability, T/C","second compound 0.1 µM, first compound 0.316 µM",98.4%
same,"viability, T/C","second compound 0.1 µM, first compound 1 µM",87.2%
same,"viability, T/C","second compound 0.1 µM, first compound 3.16 µM",96%
same,"viability, T/C","second compound 0.1 µM, first compound 10 µM",93.6%
same,"viability, T/C",[11],76%
same,"viability, T/C",[12],83.9%
same,"viability, T/C","second compound 0.316 µM, first compound 0.316 µM",91.3%
same,"viability, T/C","second compound 0.316 µM, first compound 1 µM",94.1%
same,"viability, T/C","second compound 0.316 µM, first compound 3.16 µM",83.8%
same,"viability, T/C","second compound 0.316 µM, first compound 10 µM",85.3%
same,"viability, T/C",[13],75.9%
same,"viability, T/C",[14],90.5%
same,"viability, T/C","second compound 1 µM, first compound 0.316 µM",77.8%
same,"viability, T/C","second compound 1 µM, first compound 1 µM",76.2%
same,"viability, T/C","second compound 1 µM, first compound 3.16 µM",92.7%
same,"viability, T/C","second compound 1 µM, first compound 10 µM",62.2%
same,"viability, T/C",[15],55.6%
same,"viability, T/C",[16],60.7%
same,"viability, T/C","second compound 3.16 µM, first compound 0.316 µM",57.3%
same,"viability, T/C","second compound 3.16 µM, first compound 1 µM",63.4%
same,"viability, T/C","second compound 3.16 µM, first compound 3.16 µM",52.6%
same,"viability, T/C","second compound 3.16 µM, first compound 10 µM",55.7%
same,"viability, T/C",[17],34.2%
same,"viability, T/C",[18],32.7%
same,"viability, T/C","second compound 10 µM, first compound 0.316 µM",35.6%
same,"viability, T/C","second compound 10 µM, first compound 1 µM",36.3%
same,"viability, T/C","second compound 10 µM, first compound 3.16 µM",36.6%
same,"viability, T/C","second compound 10 µM, first compound 10 µM",26%
CC(=O)c1c(C)c2cnc(Nc3ccc(N4CCNCC4)cn3)nc2n(C2CCCC2)c1=O + CC(Nc1ncnc2nc[nH]c12)c1cc2cccc(Cl)c2c(=O)n1-c1ccccc1,IC50,[1],> 100 nM
same,IC50,[2],> 100 nM
same,IC50,[3],> 100 nM
same,IC50,[4],> 100 nM
same,IC50,[5],> 100 nM
same,IC50,[6],> 100 nM
same,"viability, T/C","second compound 0.0316 µM, first compound 0.000316 µM",96.8%
same,"viability, T/C","second compound 0.0316 µM, first compound 0.001 µM",110%
same,"viability, T/C","second compound 0.0316 µM, first compound 0.00316 µM",108%
same,"viability, T/C","second compound 0.0316 µM, first compound 0.01 µM",103%
same,"viability, T/C",[7],97.7%
same,"viability, T/C",[8],99.5%
same,"viability, T/C","second compound 0.1 µM, first compound 0.000316 µM",89.4%
same,"viability, T/C","second compound 0.1 µM, first compound 0.001 µM",99.3%
same,"viability, T/C","second compound 0.1 µM, first compound 0.00316 µM",94.9%
same,"viability, T/C","second compound 0.1 µM, first compound 0.01 µM",91.5%
same,"viability, T/C",[9],105%
same,"viability, T/C",[10],101%
same,"viability, T/C","second compound 0.316 µM, first compound 0.000316 µM",90%
same,"viability, T/C","second compound 0.316 µM, first compound 0.001 µM",98.8%
same,"viability, T/C","second compound 0.316 µM, first compound 0.00316 µM",100%
same,"viability, T/C","second compound 0.316 µM, first compound 0.01 µM",100%
same,"viability, T/C",[11],111%
same,"viability, T/C",[12],113%
same,"viability, T/C","second compound 1 µM, first compound 0.000316 µM",82.2%
same,"viability, T/C","second compound 1 µM, first compound 0.001 µM",96.7%
same,"viability, T/C","second compound 1 µM, first compound 0.00316 µM",97.2%
same,"viability, T/C","second compound 1 µM, first compound 0.01 µM",110%
same,"viability, T/C",[13],96.8%
same,"viability, T/C",[14],91.6%
same,"viability, T/C","second compound 3.16 µM, first compound 0.000316 µM",108%
same,"viability, T/C","second compound 3.16 µM, first compound 0.001 µM",107%
same,"viability, T/C","second compound 3.16 µM, first compound 0.00316 µM",98.5%
same,"viability, T/C","second compound 3.16 µM, first compound 0.01 µM",104%
same,"viability, T/C",[15],88.3%
same,"viability, T/C",[16],90.2%
same,"viability, T/C","second compound 10 µM, first compound 0.000316 µM",89.8%
same,"viability, T/C","second compound 10 µM, first compound 0.001 µM",95.2%
same,"viability, T/C","second compound 10 µM, first compound 0.00316 µM",91.1%
same,"viability, T/C","second compound 10 µM, first compound 0.01 µM",109%
same,"viability, T/C",[17],98.8%
same,"viability, T/C",[18],91.5%
CC(Nc1ncnc2nc[nH]c12)c1cc2cccc(Cl)c2c(=O)n1-c1ccccc1 (stereo unspecified),"viability, T/C",compound 0.0316 µM,101% [middle of 8 runs]
same,"viability, T/C",compound 0.1 µM,104% [middle of 8 runs]
same,"viability, T/C",compound 0.316 µM,99.3% [middle of 8 runs]
same,"viability, T/C",compound 1 µM,97.6% [middle of 8 runs]
same,"viability, T/C",compound 3.16 µM,92.8% [middle of 8 runs]
same,"viability, T/C",compound 10 µM,94.6% [middle of 8 runs]
same,IC50,"compound alone, run of 06/13/2023",> 10000 nM
